# Reference: publication PMC8903829 (eLife, 2022)
# Like-named read-outs stand apart in the source and are kept apart here.
# Key:
# wild-type mice (CF-1) = test: DC-Maximal electroshock seizure assay (DC-MES); format: in vivo, mouse
# Procedure: (§1) Phenytoin was formulated in physiologic saline and was administered intraperitoneally (i.p.) using a 25-gauge needle at a dose volume of 10 mL/kg. All compounds were administered 2 hr prior to electrical seizure induction for all seizure models employed in this study.
# (§2) The maximal electroshock seizure (MES) assay has been extensively used in the search for anticonvulsant substances ([Löscher et al., 1991]; [Piredda et al., 1985]; [White et al., 1995]). The MES assay is sensitive to nonselective NaV inhibitors. It is considered a model for generalized tonic-clonic (GTC) seizures and provides an assessment of seizure spread. Briefly, an electroshock of direct current (DC) was delivered by corneal electrodes (Electro Convulsive Therapy Unit 57,800 from Ugo Basile). The parameters of stimulation were different between mice and rats. In CF1 mice aged 9–12 weeks, a direct current of 50 mA (60 Hz) was delivered for 0.2 s (pulse width of 0.5ms), whereas in Sprague Dawley (SD) rats aged 5–6 weeks, a direct current of 150 mA (60 Hz) was delivered for 0.3 s (pulse width of 0.5ms). Immediately prior to the electroshock, the animals’ eyes were anesthetized with a drop of Alcaine (0.5% proparacaine hydrochloride).
# (§3) An animal was considered protected in the assay in the absence of a GTC with hindlimb extension and is then scored ‘0’. An animal displaying GTC with hindlimb extension was considered not protected and is then scored ‘1’. The experimenter scoring the seizure behavior was blinded to the treatment.
# Sprague Dawley rats = test: Observation of potential adverse behavior (behavioral signs) in the rat DC-MES studies; format: in vivo; conditions: Sprague Dawley, rat, in vivo, 2 hr
# Procedure: Animals were observed by the scientist(s) responsible for dosing for the first 30 min after dosing for and again at the time of assay (2 hr post dose) for signs of abnormal behavior.
# Scn8a^N1768D/+ mice = test: Modified 6 Hz psychomotor seizure assay; format: in vivo, mouse
# Procedure: as §1
# Scn8a^N1768D/+heterozygous mice were tested at 5 weeks of age (p35). The modified 6 Hz seizure assay in Scn8a^N1768D/+heterozygous mice was adapted from the traditional 6 Hz assay psychomotor seizure assay to provide a measure of in vivo on target (NaV1.6 mediated) efficacy ([Barton et al., 2001]). The modified assay used a low frequency (6 Hz) but long-duration stimulation (3 s) to induce seizures. […] An electroshock (6 Hz, 12 mA) was delivered for 3 s (at 0.3-ms pulse interval) by corneal electrodes (Electro Convulsive Therapy Unit 57,800 from Ugo Basile). Immediately prior to the electroshock, the animals’ eyes were anesthetized with a drop of Alcaine (0.5% proparacaine hydrochloride).
# An animal was considered protected in the assay upon prevention of GTC with hindlimb extension and was then scored ‘0’. An animal displaying GTC with hindlimb extension was considered not protected and is then scored ‘1’. The experimenter scoring the seizure behavior was blinded to the treatment.
# [1] = tested on: wild-type Sprague Dawley rats; test: DC-Maximal electroshock seizure assay (DC-MES); format: in vivo, rat
# Procedure: as §1, §2, §3
# [2] = Bioanalytical assessment of plasma and brain concentrations after mouse DC-MES assay; format: in vivo; conditions: mouse, intraperitoneal, WT mouse DC-MES acute
# Procedure: (§4) Approximately 0.5 mL of blood was collected from each mouse at the end of the assay via cardiac puncture under deep anesthesia. The blood samples were collected in a syringe and transferred to tubes containing EDTA. Blood was stored at 4 °C until centrifuged within 30 min of collection. Plasma was harvested and placed on dry ice and stored in a freezer set to maintain a temperature of –70°C to –80°C until analysis. Brains were harvested immediately after blood collection and placed on dry ice prior to storage in a freezer set to maintain a temperature of –70°C to –80°C until analysis.
# (§5) Extraction of plasma samples was carried out by protein precipitation using acetonitrile. Plasma samples (50 µL) were mixed with 50 µL of internal standard (IS) solution in water followed by addition of 10 µL of concentrated ortho-phosphoric acid and 200 µL of acetonitrile. Samples were vortexed for 30 seconds, centrifuged at 13,000 rpm for 20 min, decanted in to a 96-well plate, and further centrifuged at 4000 rpm for 20 min. The samples were analyzed by UHPLC-ESI-MS/MS as described below.
# (§6) Prior to extraction, pre-weighed whole brains were homogenized in 1:1 acetonitrile/water (v/v) (4 mL per mouse brain) using an IKA T18 ULTRA-TURRAX Homogenizer at the setting of 4 for approximately 2 min. The homogenate was centrifuged at 13,000 rpm for 20 min and 50 µL of the supernatant were treated exactly as described above for plasma samples. […]
# (§7) Samples were analyzed by UHPLC-ESI MS/MS using a TQ-5500 Sciex triple quadrupole mass spectrometer equipped with a Shimadzu Nexera UHPLC pump and auto-sampler system using an ACE C18 PFP, 2.50 × 50 mm, 1.7 µm particle size column and gradient elution consisting of solvent A (0.1% formic acid in water) and solvent B (0.1% formic acid in acetonitrile) starting at 20% B from 0 min to 0.4 min and then increased to 100% B from 0.4 min to 0.6 min. At 2.0 min, the mobile phase composition was switched back to […] for 1 min. The flow rate used throughout the experiment was […]. […] The UHPLC-ESI MS/MS system was controlled by Analyst 1.6.
# (§8) Sample concentrations were determined using a linear calibration function, weighted 1 /X, generated by the regression of analyte to IS peak area ratios in the standard samples to their respective concentrations. Acceptance criteria for the analytical run required that the back calculated values of the standards and the QC samples fell within ±20% of their nominal values, except for the lowest standard or lower limit of quantitation (LLOQ), for which the acceptance criterion was ±25%. At least 6 out of 12 standard points had to show back-calculated values within ±20% of their nominal concentrations for the calibration to be accepted. At least three QC samples, one at each level, had to show back-calculated values within ±20% of their nominal concentrations for the whole sample batch to be valid.
# [3] = Bioanalytical assessment of plasma and brain concentrations after 6 Hz assay; format: in vivo, mouse
# Procedure: as §4, §5, §6, §7, §8
# [4] = Bioanalytical assessment of plasma and brain concentrations after rat DC-MES assay; format: in vivo; conditions: Study18085, 2 mg/kg, Rat DC-MES
# [5] = Study16042, 1 mg/kg, SCN8A mouse 6HZ
# [6] = Study16042, 3 mg/kg, SCN8A mouse 6HZ
# [7] = Study16042, 10 mg/kg, SCN8A mouse 6HZ
# [8] = Study16042, 30 mg/kg, SCN8A mouse 6HZ
# [9] = Study16042, 56 mg/kg, SCN8A mouse 6HZ
# [10] = Study16189, 10 mg/kg, SCN8A mouse 6HZ
# [11] = Study16189, 30 mg/kg, SCN8A mouse 6HZ
# [12] = Study16202, 1 mg/kg, P75, SCN8A mouse 6HZ
# [13] = Study16202, 3 mg/kg, P75, SCN8A mouse 6HZ
smiles,measurement,setting,value
"O=C1NC(=O)C(c2ccccc2)(c2ccccc2)N1 [phenytoin, Phenytoin]",WT mouse DC-MES acute Fraction of animals seizing,"wild-type mice (CF-1); Study16130, 5 mg/kg",0.5714
same,WT mouse DC-MES acute Fraction of animals seizing,"wild-type mice (CF-1); Study16130, 10 mg/kg",0
same,WT mouse DC-MES acute Fraction of animals seizing,"wild-type mice (CF-1); Study17131, 2 mg/kg",0.6667
same,WT mouse DC-MES acute Fraction of animals seizing,"wild-type mice (CF-1); Study17136, 2 mg/kg",0.7143
same,WT mouse DC-MES acute Fraction of animals seizing,"wild-type mice (CF-1); Study17136, 5 mg/kg",0.625
same,EC50,"wild-type mice (CF-1); WT mouse DC-MES, 2 hr post dose (oral; phenytoin i.p.), read-out: brain EC50",13 µM
same,minimal plasma concentration provoking behavioral signs (BSC),Sprague Dawley rats,11 µM
same,EC50,"Scn8a^N1768D/+ mice; Mus musculus, Scn8a^N1768D/+ 6 Hz model, 2 hr post dose (oral; phenytoin i.p.), read-out: brain EC50",18 µM
same,EC50,"[1]; WT rat DC-MES (oral; phenytoin i.p.), read-out: plasma EC50",4.5 µM
same,EC50,"[1]; WT rat DC-MES, 2 hr post dose (oral; phenytoin i.p.), read-out: brain EC50",2.6 µM
same,concentration at 2 h,"[2]; brain, 2 mg/kg, Study17131, 2 mg/kg, read-out: Mean [Brain]",6.12 µM
same,concentration at 2 h,"[2]; brain, 2 mg/kg, Study17136, 2 mg/kg, read-out: Mean [Brain]",3.6 µM
same,concentration at 2 h,"[2]; brain, 5 mg/kg, Study16130, 5 mg/kg, read-out: Mean [Brain]",17.9 µM
same,concentration at 2 h,"[2]; brain, 5 mg/kg, Study17136, 5 mg/kg, read-out: Mean [Brain]",10.9 µM
same,concentration at 2 h,"[2]; brain, 10 mg/kg, Study16130, 10 mg/kg, read-out: Mean [Brain]",38.3 µM
same,concentration at 2 h,"[2]; plasma, 2 mg/kg, Study17131, 2 mg/kg, read-out: Mean [Palsma]",3.42 µM
same,concentration at 2 h,"[2]; plasma, 2 mg/kg, Study17136, 2 mg/kg, read-out: Mean [Palsma]",3.65 µM
same,concentration at 2 h,"[2]; plasma, 5 mg/kg, Study16130, 5 mg/kg, read-out: Mean [Palsma]",16.1 µM
same,concentration at 2 h,"[2]; plasma, 5 mg/kg, Study17136, 5 mg/kg, read-out: Mean [Palsma]",11.5 µM
same,concentration at 2 h,"[2]; plasma, 10 mg/kg, Study16130, 10 mg/kg, read-out: Mean [Palsma]",30.7 µM
O=C1NC(=O)C(c2ccccc2)(c2ccccc2)N1 [PHT],Mean [Brain],[3]; [5],2.665 µM
same,Mean [Palsma],[3]; [5],1.798 µM
same,Mean [Brain],[3]; [6],11.7685 µM
same,Mean [Palsma],[3]; [6],7.584 µM
same,Mean [Brain],[3]; [7],38.4981 µM
same,Mean [Palsma],[3]; [7],32.6675 µM
same,Mean [Brain],[3]; [8],120.646 µM
same,Mean [Palsma],[3]; [8],92.6612 µM
same,Mean [Brain],[3]; [9],109.171 µM
same,Mean [Palsma],[3]; [9],127.343 µM
same,Mean [Brain],[3]; [10],29.4623 µM
same,Mean [Palsma],[3]; [10],26.0411 µM
same,Mean [Brain],[3]; [11],76.4798 µM
same,Mean [Palsma],[3]; [11],59.0466 µM
same,Mean [Brain],[3]; [12],2.628 µM
same,Mean [Palsma],[3]; [12],2.477 µM
same,Mean [Brain],[3]; [13],7.154 µM
same,Mean [Palsma],[3]; [13],7.163 µM
same,Mean [Brain],[4],1.841 µM
same,Mean [Palsma],[4],3.4567 µM
same,SCN8A mouse 6HZ Fraction of animals seizing,"Scn8a^N1768D/+ mice; Study16042, 1 mg/kg",1
same,SCN8A mouse 6HZ Fraction of animals seizing,"Scn8a^N1768D/+ mice; Study16042, 3 mg/kg",0.75
same,SCN8A mouse 6HZ Fraction of animals seizing,"Scn8a^N1768D/+ mice; Study16042, 10 mg/kg",0.25
same,SCN8A mouse 6HZ Fraction of animals seizing,"Scn8a^N1768D/+ mice; Study16042, 30 mg/kg",0
same,SCN8A mouse 6HZ Fraction of animals seizing,"Scn8a^N1768D/+ mice; Study16042, 56 mg/kg",0
same,SCN8A mouse 6HZ Fraction of animals seizing,"Scn8a^N1768D/+ mice; Study16189, 10 mg/kg",0.15
same,SCN8A mouse 6HZ Fraction of animals seizing,"Scn8a^N1768D/+ mice; Study16189, 30 mg/kg",0
same,SCN8A mouse 6HZ Fraction of animals seizing,"Scn8a^N1768D/+ mice; Study16202, 1 mg/kg, P75",1
same,SCN8A mouse 6HZ Fraction of animals seizing,"Scn8a^N1768D/+ mice; Study16202, 3 mg/kg, P75",0.858
same,Rat DC-MES Fraction of animals seizing,"[1]; Study18085, 2 mg/kg",0.667
